Where two headings read alike, the source gives them in different places.
How the values were obtained:
[1] = test system: KARPAS-422 (EZH2 Y641N mutation); assay: Cell growth inhibition test, KARPAS-422; type: cell-based; settings: KARPAS-422, culture time 7 days, read-out: Cell growth inhibitory activity (GI50, nM) KARPAS-422 (EZH2 Y641N mutation)
[2] = Mouse pharmacokinetics, oral single dose; type: in vivo; settings: plasma, 30 mg/kg, mice (ICR, male), oral single dose 30 mg/kg; for AUC: read-out: Area under oral curve (AUC)
Protocol: Pharmacokinetics of the synthetic compounds as EZH2 inhibitors in mice (ICR, 8-week-old, male) were tested.
The oral administration group was maintained in a fasting state from the day before the test to 4 hours after administration of the test compound. On the day of administration of the test compound, the weight of each animal was measured and each synthetic compound was formulated using a selected solvent based on 30 mg/kg (10 mL/kg). Each test compound was administered orally in a single dose, a certain amount of the blood was taken at a predetermined time, plasma was isolated therefrom, and the concentration of each test compound in the plasma was analyzed using LC-MS/MS (Waters UPLC H-Class/Xevo TQ; Waters, USA). Pharmacokinetic coefficients were calculated by a linear-log trapezoidal summation formula using a non-compartment analysis of the Phoenix™ WinNonlin (Certara, USA) program through the plasma concentration curve over time.

[3] = Metabolic stability in mouse liver microsomes; type: in vitro ADME; settings: 5 μM compound, 1 mg/mL mouse liver microsomes, 37° C., NADPH regenerating system
Protocol: (§1) In order to confirm the metabolic stability of the synthetic compounds in the liver, 5 μM test compound and 1 mg/mL human, dog, rat or mouse liver microsomes were allowed to react with each other at 37° C. in the presence of the NADPH regenerating system for 1 hour. After 1 hour, the reaction was terminated and the supernatant obtained by centrifugation was analyzed by HPLC. With the peak value obtained as the analysis result, the residual amount (%) was calculated using the following equation through the peak value of the test compound after 1 hour of the reaction versus the peak value of the test compound at 0 min. Residual amount (%)=(peak value of test compound after 1 hour of reaction/peak value of test compound at 0 min)×100

EZH1 = target: T1, EZH1 (Homo sapiens, UniProt Q92800); assay: Inhibitory activity against EZH1 methyltransferase (radiometric scintillation proximity assay); type: biochemical; settings: 2.3 nmol/L enzyme, 90 minutes, room temperature;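 further: Read-out is methylation of a substrate peptide, captured on streptavidin-coated SPA beads and counted by scintillation, in Tris-HCl buffer at pH 8.0 with 1% DMSO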
T1 construct: purchased Reaction Biology Corp. (contract assay)
Protocol: (§2) The inhibitory activities of the synthetic compounds against EZH1 or EZH2 methyltransferase were measured. The experiment was conducted by Reaction Biology Corp., and the activity of EZH1 or EZH2 was measured using a radiometric scintillation proximity assay. […] The reaction buffer consisted of 50 mmol/L Tris-HCl (pH 8.0), 50 mmol/L NaCl, 1 mmol/L EDTA, 1 mmoL/L DTT, 1 mmol/L PMSF, and 1% DMSO. Trichloroacetic acid was added to terminate the reaction, and PVT streptavidin-coated SPA beads were added to each reaction solution, followed by further reaction at room temperature for 1 hour again. The methylation value of the substrate peptide was measured using the TopCount NXT plate reader.

EZH2 = EZH2 (Homo sapiens, UniProt Q15910); assay: Inhibitory activity against EZH2 methyltransferase (radiometric scintillation proximity assay); settings: Enzyme inhibitory activity (IC50, nM) EZH2, 2.3 nmol/L enzyme, 90 minutes, room temperature;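 further: Read-out is substrate peptide methylation, captured on streptavidin-coated SPA beads and counted by scintillation, with the reaction run in Tris-HCl buffer at pH 8.0 containing 1% DMSO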
Protocol: as §2

[4] = test system: Pfeiffer (EZH2 A677G mutation); assay: Cell growth inhibition test, Pfeiffer; type: cell-based; settings: Homo sapiens, read-out: Cell growth inhibitory activity (GI50, nM) Pfeiffer (EZH2 A677G mutation)
Protocol: Each type of the cultured cells was seeded in 6-well plates or 48-96 well plates, and subculture or medium replacement was performed every 3 to 4 days. Next, the cells were subcultured for a total of 7 to 14 days, and then seeded in 96-well plates. 3 to 5 days before the measurement of the effect, the cells were seeded in 96-well plates, and then the absorbance (Tz) on the day of seeding was measured. The absorbance after the reaction was measured by the plate reader device Synergy NeoAlpha (Biotek) using Cell-Titer-Glo Cell Viability Assay (Promega, G7573) according to the attached manual. Based on the absorbance (Tz) measured on the seeding day and the absorbance of each of the DMSO-treated group (C) and the sample-added group (Ti) measured on the day of effect determination, the percentage of cell proliferation inhibition was calculated according to the following Equation 1. [(Ti−Tz)/(C−Tz)]×100 for concentrations for which Ti≥Tz […] for concentrations for which Ti<Tz. [Equation 1]

[5] = Metabolic stability in human liver microsomes; type: in vitro ADME; settings: 5 μM compound, 1 mg/mL human liver microsomes, 37° C., NADPH regenerating system
Protocol: as §1

[6] = Homo sapiens, KARPAS-422, 168 h

EZH2, sequence (Q15910 whole entry): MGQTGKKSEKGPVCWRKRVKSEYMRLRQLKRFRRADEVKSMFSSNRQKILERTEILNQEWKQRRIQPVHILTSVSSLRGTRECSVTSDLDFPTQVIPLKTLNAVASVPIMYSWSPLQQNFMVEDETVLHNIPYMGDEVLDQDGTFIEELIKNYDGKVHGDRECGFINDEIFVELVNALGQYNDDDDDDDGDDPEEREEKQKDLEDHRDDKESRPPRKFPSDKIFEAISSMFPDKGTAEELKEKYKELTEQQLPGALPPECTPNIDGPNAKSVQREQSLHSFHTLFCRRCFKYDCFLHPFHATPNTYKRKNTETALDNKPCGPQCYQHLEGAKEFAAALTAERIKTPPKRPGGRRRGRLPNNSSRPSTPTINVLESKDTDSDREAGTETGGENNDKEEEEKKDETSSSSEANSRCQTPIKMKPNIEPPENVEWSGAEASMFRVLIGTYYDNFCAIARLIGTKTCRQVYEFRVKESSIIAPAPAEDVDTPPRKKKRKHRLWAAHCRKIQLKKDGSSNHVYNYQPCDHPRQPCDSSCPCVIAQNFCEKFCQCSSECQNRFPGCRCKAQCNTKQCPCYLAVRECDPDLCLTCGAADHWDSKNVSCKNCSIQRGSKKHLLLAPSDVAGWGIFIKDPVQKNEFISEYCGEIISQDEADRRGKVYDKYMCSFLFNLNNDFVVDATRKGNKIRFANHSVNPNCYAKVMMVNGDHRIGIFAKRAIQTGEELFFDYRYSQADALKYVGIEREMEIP
EZH2, sequence (O75530 whole entry partner): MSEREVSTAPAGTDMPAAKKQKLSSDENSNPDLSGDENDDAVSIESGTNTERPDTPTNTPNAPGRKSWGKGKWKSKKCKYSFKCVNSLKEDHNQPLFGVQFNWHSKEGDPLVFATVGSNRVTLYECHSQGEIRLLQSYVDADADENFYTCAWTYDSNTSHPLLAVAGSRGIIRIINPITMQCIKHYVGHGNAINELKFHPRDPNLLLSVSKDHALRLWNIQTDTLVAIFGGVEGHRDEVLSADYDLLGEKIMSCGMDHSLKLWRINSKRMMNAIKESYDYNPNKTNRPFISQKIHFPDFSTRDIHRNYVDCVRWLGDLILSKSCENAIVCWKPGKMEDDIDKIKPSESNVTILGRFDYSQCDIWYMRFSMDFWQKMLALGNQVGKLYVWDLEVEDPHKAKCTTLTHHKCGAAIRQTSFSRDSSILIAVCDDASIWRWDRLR
EZH2, sequence (Q15022 whole entry partner): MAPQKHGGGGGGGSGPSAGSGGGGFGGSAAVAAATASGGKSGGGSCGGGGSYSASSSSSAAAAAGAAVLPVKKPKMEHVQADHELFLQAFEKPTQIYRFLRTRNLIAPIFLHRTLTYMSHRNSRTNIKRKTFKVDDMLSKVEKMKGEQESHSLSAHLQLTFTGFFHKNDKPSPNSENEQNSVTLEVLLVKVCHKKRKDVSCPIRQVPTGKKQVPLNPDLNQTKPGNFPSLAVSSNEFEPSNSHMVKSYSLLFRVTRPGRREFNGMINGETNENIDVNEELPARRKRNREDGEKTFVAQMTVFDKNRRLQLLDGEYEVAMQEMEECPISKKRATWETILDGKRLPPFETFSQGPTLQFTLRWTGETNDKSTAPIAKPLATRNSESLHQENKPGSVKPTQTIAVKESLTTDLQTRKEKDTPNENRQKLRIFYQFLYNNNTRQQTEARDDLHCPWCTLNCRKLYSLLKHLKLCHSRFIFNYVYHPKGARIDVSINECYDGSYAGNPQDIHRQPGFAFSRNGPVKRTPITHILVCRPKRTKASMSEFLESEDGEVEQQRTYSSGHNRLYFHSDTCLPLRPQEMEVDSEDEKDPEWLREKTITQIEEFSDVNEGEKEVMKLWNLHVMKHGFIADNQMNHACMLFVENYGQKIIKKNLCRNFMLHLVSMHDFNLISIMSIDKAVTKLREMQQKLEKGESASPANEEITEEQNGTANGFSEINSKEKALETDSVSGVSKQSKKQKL
EZH2, sequence (Q09028 whole entry partner): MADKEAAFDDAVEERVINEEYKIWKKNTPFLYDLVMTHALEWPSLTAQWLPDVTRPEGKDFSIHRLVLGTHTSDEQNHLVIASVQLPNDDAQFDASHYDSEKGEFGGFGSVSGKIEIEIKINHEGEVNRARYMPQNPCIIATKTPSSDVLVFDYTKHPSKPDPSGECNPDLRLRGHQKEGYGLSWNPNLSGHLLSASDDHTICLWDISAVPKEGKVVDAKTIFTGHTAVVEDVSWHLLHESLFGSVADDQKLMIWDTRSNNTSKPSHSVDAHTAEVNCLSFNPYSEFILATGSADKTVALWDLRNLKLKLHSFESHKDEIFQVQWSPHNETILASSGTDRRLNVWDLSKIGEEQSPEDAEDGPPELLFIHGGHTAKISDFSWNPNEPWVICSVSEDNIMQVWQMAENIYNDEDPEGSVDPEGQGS
EZH2, sequence (Q6ZN18 whole entry partner): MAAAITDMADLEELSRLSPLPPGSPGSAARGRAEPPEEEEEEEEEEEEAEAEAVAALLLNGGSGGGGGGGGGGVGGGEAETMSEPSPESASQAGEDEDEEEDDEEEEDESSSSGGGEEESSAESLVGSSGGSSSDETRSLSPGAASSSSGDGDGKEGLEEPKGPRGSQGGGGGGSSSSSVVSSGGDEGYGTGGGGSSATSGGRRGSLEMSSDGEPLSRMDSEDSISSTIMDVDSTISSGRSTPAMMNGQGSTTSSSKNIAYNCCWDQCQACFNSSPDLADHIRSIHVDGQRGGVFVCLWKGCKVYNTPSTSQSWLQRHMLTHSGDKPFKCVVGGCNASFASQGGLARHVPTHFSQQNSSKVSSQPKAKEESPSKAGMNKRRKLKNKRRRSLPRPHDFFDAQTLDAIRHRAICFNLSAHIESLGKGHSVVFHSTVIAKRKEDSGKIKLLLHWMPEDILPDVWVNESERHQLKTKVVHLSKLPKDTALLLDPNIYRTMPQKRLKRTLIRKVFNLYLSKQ
T1 sequence (Q92800 whole entry): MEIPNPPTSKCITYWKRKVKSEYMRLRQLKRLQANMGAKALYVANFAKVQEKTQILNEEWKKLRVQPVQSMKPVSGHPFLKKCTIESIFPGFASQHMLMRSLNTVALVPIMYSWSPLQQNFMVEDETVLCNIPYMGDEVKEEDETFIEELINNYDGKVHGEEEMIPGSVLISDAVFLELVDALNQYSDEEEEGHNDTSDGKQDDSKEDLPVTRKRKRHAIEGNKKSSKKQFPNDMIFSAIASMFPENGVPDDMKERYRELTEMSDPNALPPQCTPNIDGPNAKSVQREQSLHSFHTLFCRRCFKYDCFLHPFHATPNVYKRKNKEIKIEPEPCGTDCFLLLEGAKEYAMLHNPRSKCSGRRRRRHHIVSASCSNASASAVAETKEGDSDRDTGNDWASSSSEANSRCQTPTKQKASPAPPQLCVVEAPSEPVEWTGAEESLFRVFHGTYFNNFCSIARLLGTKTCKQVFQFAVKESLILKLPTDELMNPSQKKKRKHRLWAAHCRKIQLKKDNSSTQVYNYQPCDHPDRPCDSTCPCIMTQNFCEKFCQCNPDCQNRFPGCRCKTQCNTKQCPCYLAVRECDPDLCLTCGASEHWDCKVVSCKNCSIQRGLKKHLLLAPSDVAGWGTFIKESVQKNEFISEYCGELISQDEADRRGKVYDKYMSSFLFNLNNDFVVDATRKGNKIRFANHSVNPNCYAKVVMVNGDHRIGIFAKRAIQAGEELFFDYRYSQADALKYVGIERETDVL
T1 sequence (O75530 whole entry partner): as the sequence (O75530 whole entry partner) above
T1 sequence (Q15022 whole entry partner): as the sequence (Q15022 whole entry partner) above
T1 sequence (Q09028 whole entry partner): as the sequence (Q09028 whole entry partner) above
T1 sequence (Q6ZN18 whole entry partner): as the sequence (Q6ZN18 whole entry partner) above

GI50 [1, 6] [nM] | AUC ([2]; male, ICR, mouse, po) [ng·h/mL] | Residual amount (%) of test compound after 1 hour of reaction, Mouse [3] [%] | IC50 (EZH1) [nM] | IC50 (EZH2) [nM] | Residual amount (%) of test compound after 1 hour of reaction, Human [5] [%] | GI50 [1] [nM] | Area under oral curve (AUC) [2] | Half life T1/2 [2] [h] | half-life ([2]; male, ICR, mouse, po, read-out: Half life T1/2 (converted)) [h] | SMILES | GI50 [4] [nM]
1.8 to 9.6 | 1040 | 79 | 23 to 35 | 1.8 to 2.3 | 82 | – | – | – | – | COc1cc(C)[nH]c(=O)c1CN1CCc2c(Cl)c3c(c(C)c2C1=O)OC(C)([C@H]1CC[C@H](N(C)C)CC1)O3 (stereo partly drawn) [Compound 13, 9-chloro-2-(trans-4-(dimethylamino)cyclohexyl)-6-((4-methoxy-6-methyl-2-oxo-1,2-dihydropyridin-3-yl)methyl)-2,4-dimethyl-7,8-dihydro-[1,3]dioxolo[4,5-g]isoquinolin-5(6H)-one] | 0.27
3.2 | – | 100 | 9.7 | 1.4 | 66 | – | – | – | – | CN[C@H]1CC[C@H](C2(C)Oc3c(C)c4c(c(Cl)c3O2)CCN(Cc2c(C)cc(C)[nH]c2=O)C4=O)CC1 (stereo partly drawn) [Compound 34, 9-chloro-6-((4,6-dimethyl-2-oxo-1,2-dihydropyridin-3-yl)methyl)-2,4-dimethyl-2-(trans-4-(methylamino)cyclohexyl)-7,8-dihydro-[1,3]dioxolo[4,5-g]isoquinolin-5(6H)-one] | 1.48
– | – | 55 | 10 to 21 | 0.8 to 1.4 | 79 | 2.5 to 13 | – | – | – | Cc1cc(C)c(CN2CCc3c(Cl)c4c(c(C)c3C2=O)OC(C)([C@H]2CC[C@H](N(C)C)CC2)O4)c(=O)[nH]1 (single isomer, unassigned) [Compound 10, 9-chloro-6-((4,6-dimethyl-2-oxo-1,2-dihydropyridin-3-yl)methyl)-2-(trans-4-(dimethylamino)cyclohexyl)-2,4-dimethyl-7,8-dihydro-[1,3]dioxolo[4,5-g]isoquinolin-5(6H)-one] | 0.84
4.4 | 1520 | 64 | 41 | 1.6 | 70 | – | – | – | – | CN[C@H]1CC[C@H](C2(C)Oc3c(C)c4c(c(Br)c3O2)CCN(Cc2c(C)cc(C)[nH]c2=O)C4=O)CC1 (stereo partly drawn) [Compound 51, 9-bromo-6-((4,6-dimethyl-2-oxo-1,2-dihydropyridin-3-yl)methyl)-2,4-dimethyl-2-(trans-4-(methylamino)cyclohexyl)-7,8-dihydro-[1,3]dioxolo[4,5-g]isoquinolin-5(6H)-one] | –
3.2 to 8.4 | 3650 | 80 | 9.7 to 30 | 1.2 to 6.2 | 62 | – | – | – | – | Cc1cc(C)c(CN2CCc3c(C)c4c(c(C)c3C2=O)OC(C)([C@H]2CC[C@H](N(C)C)CC2)O4)c(=O)[nH]1 (stereo partly drawn) [Compound 39, 6-((4,6-dimethyl-2-oxo-1,2-dihydropyridin-3-yl)methyl)-2-(trans-4-(dimethylamino)cyclohexyl)-2,4,9-trimethyl-7,8-dihydro-[1,3]dioxolo[4,5-g]isoquinolin-5(6H)-one] | 0.76 to 0.99
– | – | 54 | – | – | 35 | 419 | 12,239 ng · hr/mL | 2.5 | – | Cc1cc(C)c(CN2CCc3c(Br)c4c(c(C)c3C2=O)OC(C)([C@H]2CC[C@H](N(C)C)CC2)O4)c(=O)[nH]1 (single isomer, unassigned) [Compound 50, 9-bromo-6-((4,6-dimethyl-2-oxo-1,2-dihydropyridin-3-yl)methyl)-2-(trans-4-(dimethylamino)cyclohexyl)-2,4-dimethyl-7,8-dihydro-[1,3]dioxolo[4,5-g]isoquinolin-5(6H)-one] | –
4.9 to 15 | – | 61 | 23 to 50 | 3.2 | 57 | – | – | – | – | Cc1cc(C)c(CN2CCc3c(Cl)c4c(c(C)c3C2=O)OC(C)([C@H]2CC[C@@H](N(C)C)CC2)O4)c(=O)[nH]1 (stereo partly drawn) [Compound 12, 9-chloro-6-((4,6-dimethyl-2-oxo-1,2-dihydropyridin-3-yl)methyl)-2-(cis-4-(dimethylamino)cyclohexyl)-2,4-dimethyl-7,8-dihydro-[1,3]dioxolo[4,5-g]isoquinolin-5(6H)-one] | 0.66
58 | – | 61 | 8.1 | 1.4 | 52 | – | – | – | – | CCCc1cc(C)[nH]c(=O)c1CN1CCc2c(C)c3c(c(C)c2C1=O)OC(C)([C@H]1CC[C@H](N(C)C)CC1)O3 (stereo partly shown) [Compound 43] | 6.76
1.9 to 2.6 | 770 | 79 | 20 | 2.6 | 84 | – | – | – | – | Cc1cc(C)c(CN2CCc3c(C)c4c(c(Cl)c3C2=O)OC(C)([C@H]2CC[C@H](N(C)C)CC2)O4)c(=O)[nH]1 (stereo partly shown) [Compound 4] | –
3.7 to 12.4 | 17300 to 18700 | 52 | – | – | 54 | – | – | – | 2.8 to 3.2 | Cc1cc(C)c(CN2CCc3c(Br)c4c(c(C)c3C2=O)OC(C)([C@H]2CC[C@H](N(C)C)CC2)O4)c(=O)[nH]1 (stereo partly drawn) [Compound 48, 9-bromo-6-((4,6-dimethyl-2-oxo-1,2-dihydropyridin-3-yl)methyl)-2-(trans-4-(dimethylamino)cyclohexyl)-2,4-dimethyl-7,8-dihydro-[1,3]dioxolo[4,5-g]isoquinolin-5(6H)-one] | 0.77
2.6 to 8.8 | – | 88 | 31 to 34 | 3.4 to 6 | 74 | – | – | – | – | COc1cc(C)[nH]c(=O)c1CN1CCc2c(C)c3c(c(C)c2C1=O)OC(C)([C@H]1CC[C@H](N(C)C)CC1)O3 (stereo partly drawn) [Compound 42, 2-(trans-4-(dimethylamino)cyclohexyl)-6-((4-methoxy-6-methyl-2-oxo-1,2-dihydropyridin-3-yl)methyl)-2,4,9-trimethyl-7,8-dihydro-[1,3]dioxolo[4,5-g]isoquinolin-5(6H)-one] | 0.97 to 1.41
– | – | 84 | 28 | 1.8 | 82 | 1.8 | – | – | – | Cc1cc(C)c(CN2CCc3c(C)c4c(c(C)c3C2=O)OC(C)([C@H]2CC[C@H](N(C)C)CC2)O4)c(=O)[nH]1 (single isomer, unassigned) [Compound 40, 6-((4,6-dimethyl-2-oxo-1,2-dihydropyridin-3-yl)methyl)-2-(trans-4-(dimethylamino)cyclohexyl)-2,4,9-trimethyl-7,8-dihydro-[1,3]dioxolo[4,5-g]isoquinolin-5(6H)-one] | 0.71

Reference: patent publication US12344618B2, “Heterotricyclic derivative compound and use of same” (HANMI PHARMACEUTICAL CO., LTD., priority 2019, dated 2025)
